Tests used:
[1] = in vitro; settings: dog, MDCK
Description: Intrinsic absorptive permeability from apical to basolateral side of dog RRCK cells

[2] = in vitro; settings: human, liver microsomes
Description: Apparent total intrinsic clearance in human liver microsomes

[3] = physchem; settings: octanol/water, pH 7.4
[4] = test system: Mus musculus; assay: Toxicity in po dosed athymic nu/nu mouse xenografted with human NCI-H3122 cells harboring ALK L1196M mutant assessed as body weight reduction administered via gavage starting on day 15 post tumor implantation; format: organism-based; settings: in vivo
[5] = Antitumor activity against human NCI-H3122 cells harboring ALK L1196M mutant xenografted in athymic nu/nu mouse assessed as tumor growth regression at 50 mg/kg, po bid administered via gavage starting on day 15 post tumor implantation measured on day 27; format: functional
[6] = Antitumor activity against human NCI-H3122 cells harboring ALK L1196M mutant xenografted in athymic nu/nu mouse assessed as tumor total growth inhibition at 15 mg/kg, po bid administered via gavage starting on day 15 post tumor implantation; format: functional; settings: NCI-H3122, 360 h, read-out: TGI
[7] = Antitumor activity against human NCI-H3122 cells harboring ALK L1196M mutant xenografted in athymic nu/nu mouse assessed as tumor total growth inhibition at 30 mg/kg, po qd administered via gavage starting on day 15 post tumor implantation; format: functional; settings: NCI-H3122, 360 h, read-out: TGI
[8] = Oral bioavailability in rat at 5 mg/kg; format: ADME, organism-based; settings: in vivo
[9] = Tmax in rat at 5 mg/kg, po; format: ADME, organism-based; set-up: dose 5 mg/kg, route oral; settings: in vivo
[10] = Cmax in rat at 5 mg/kg, po; format: ADME, organism-based; set-up: dose 5 mg/kg, route oral; settings: in vivo
[11] = AUC in rat at 5 mg/kg, po; format: ADME, organism-based; set-up: dose 5 mg/kg, route oral; settings: plasma
[12] = Half life in rat at 1 mg/kg, iv; format: ADME, organism-based; set-up: dose 1 mg/kg, route intravenous; settings: in vivo
[13] = Volume of distribution at steady state in rat at 1 mg/kg, iv; format: ADME, organism-based; set-up: dose 1 mg/kg, route intravenous; settings: in vivo, read-out: Vdss
[14] = Plasma clearance in rat at 1 mg/kg, iv; format: ADME, organism-based; set-up: dose 1 mg/kg, route intravenous
[15] = AUC in rat at 1 mg/kg, iv; format: ADME, organism-based; set-up: dose 1 mg/kg, route intravenous; settings: plasma
[16] = target: NT-3 growth factor receptor (Homo sapiens, UniProt Q16288); assay: Inhibition of NTRK3 (unknown origin) using Km levels of ATP
[17] = target: High affinity nerve growth factor receptor (Homo sapiens, UniProt P04629); assay: Inhibition of NTRK1 (unknown origin) using Km levels of ATP
[18] = target: Focal adhesion kinase 1 (Homo sapiens, UniProt Q05397); assay: Inhibition of PTK2 (unknown origin) using Km levels of ATP
[19] = target: Tyrosine-protein kinase Fes/Fps (Homo sapiens, UniProt P07332); assay: Inhibition of FES (unknown origin) using Km levels of ATP
[20] = target: BDNF/NT-3 growth factors receptor (Homo sapiens, UniProt Q16620); assay: Inhibition of NTRK2 (unknown origin) using Km levels of ATP
[21] = target: Leukocyte tyrosine kinase receptor (Homo sapiens, UniProt P29376); assay: Inhibition of LTK (unknown origin) using Km levels of ATP
[22] = target: Tyrosine-protein kinase Fer (Homo sapiens, UniProt P16591); assay: Inhibition of FER (unknown origin) using Km levels of ATP
[23] = target: Proto-oncogene tyrosine-protein kinase ROS (Homo sapiens, UniProt P08922); assay: Inhibition of ROS1 (unknown origin) by Pfizer mobility shift assay
[24] = target: Activated CDC42 kinase 1 (Homo sapiens, UniProt Q07912)
[25] = target: T1, ALK tyrosine kinase receptor (Homo sapiens, UniProt Q9UM73, L1196M)
[26] = target: T1, ALK tyrosine kinase receptor; remark: listed apart in the source

Question: Which Papp A→B [1] does the source give for `Cc1n[nH]cc1-c1cnc(N)c(O[C@H](C)c2cc(F)ccc2F)c1` here?
Answer: 18 ×10⁻⁶ cm/s

Question: What about the CLint scaled [2] of the same compound?
Answer: 31 mL/min/kg

Question: What about the logD [3] of the same compound?
Answer: 3.4

Question: Which results are given for `C[C@@H](Oc1cc(-c2ccnn2C)cnc1N)c1cc(F)ccc1-n1nccn1`?
Answer: Papp A→B [1]: 22 ×10⁻⁶ cm/s; CLint scaled [2]: 17 mL/min/kg; logD [3]: 3.3

Question: For `Cc1nc([C@](C)(O)CO)sc1-c1cnc(N)c(O[C@H](C)c2cc(F)ccc2-n2nccn2)c1`, which Activity [4] is on record?
Answer: Non-toxic

Question: And the Activity [5]?
Answer: 56%

Question: What about the inhibition in vivo at 15 mg/kg [6] of the same compound?
Answer: 100%

Question: And the inhibition in vivo at 30 mg/kg [7]?
Answer: 100%

Question: And the bioavailability [8]?
Answer: 86%

Question: What about the Tmax [9] of the same compound?
Answer: 1.3 h

Question: And the Cmax [10]?
Answer: 568 nM

Question: And the AUC [11]?
Answer: 2.87 µM·h

Question: And the half-life [12]?
Answer: 0.9 h

Question: And the Vd [13]?
Answer: 2 L/kg

Question: What about the clearance [14] of the same compound?
Answer: 54 mL/min/kg

Question: What about the AUC [15] of the same compound?
Answer: 0.667 µM·h

Question: And the IC50 [16]?
Answer: 18 nM

Question: And the IC50 [17]?
Answer: 17 nM

Question: And the IC50 [18]?
Answer: 16 nM

Question: And the IC50 [19]?
Answer: 5 nM

Question: And the IC50 [20]?
Answer: 4 nM

Question: What about the IC50 [21] of the same compound?
Answer: 2 nM

Question: What about the IC50 [22] of the same compound?
Answer: 2 nM

Question: And the Ki [23]?
Answer: 0.02 nM

Question: And the IC50 [24]?
Answer: 15 nM

Question: What about the Papp A→B [1] of the same compound?
Answer: 19 ×10⁻⁶ cm/s

Question: What about the CLint scaled [2] of the same compound?
Answer: 15 mL/min/kg

Question: And the logD [3]?
Answer: 2.9

Question: With `COc1ncncc1-c1cnc(N)c(O[C@H](C)c2cc(F)ccc2-n2nccn2)c1` as the compound, how does the Papp A→B [1] read?
Answer: 22 ×10⁻⁶ cm/s

Question: What about the CLint scaled [2] of the same compound?
Answer: 49 mL/min/kg

Question: What about the logD [3] of the same compound?
Answer: 3.1

Question: Which Papp A→B [1] does the source give for `Cc1n[nH]cc1-c1cnc(N)c(O[C@H](C)c2cc(F)ccc2-n2nccn2)c1` here?
Answer: 21 ×10⁻⁶ cm/s

Question: And the CLint scaled [2]?
Answer: 46 mL/min/kg

Question: What about the logD [3] of the same compound?
Answer: 3.3

Question: Which Papp A→B [1] does the source give for `Cc1nc(C2(O)CCS(=O)(=O)C2)sc1-c1cnc(N)c(O[C@H](C)c2cc(F)ccc2-n2nccn2)c1` (stereo not given in full) here?
Answer: 14 ×10⁻⁶ cm/s

Question: What about the CLint scaled [2] of the same compound?
Answer: 13 mL/min/kg

Question: And the logD [3]?
Answer: 3.2

Question: For `COc1ccc(F)cc1[C@@H](C)Oc1cc(-c2c[nH]nc2C)cnc1N`, which Papp A→B [1] is on record?
Answer: 14 ×10⁻⁶ cm/s

Question: And the CLint scaled [2]?
Answer: 65 mL/min/kg

Question: And the logD [3]?
Answer: 3.5

Question: What does the source list for `Cc1nc([C@@](C)(O)CO)sc1-c1cnc(N)c(O[C@H](C)c2cc(F)ccc2-n2nccn2)c1`?
Answer: Papp A→B [1]: 17 ×10⁻⁶ cm/s; CLint scaled [2]: 15 mL/min/kg; logD [3]: 2.9

Question: What does the source list for `Cc1nc(C2(O)CCOC2)sc1-c1cnc(N)c(O[C@H](C)c2cc(F)ccc2-n2nccn2)c1` (single isomer, unassigned)?
Answer: Papp A→B [1]: 21 ×10⁻⁶ cm/s; CLint scaled [2]: 138 mL/min/kg; logD [3]: 3.3

Question: For `COc1ncccc1-c1cnc(N)c(O[C@H](C)c2cc(F)ccc2-n2nccn2)c1`, which Papp A→B [1] is on record?
Answer: 14 ×10⁻⁶ cm/s

Question: And the CLint scaled [2]?
Answer: 38 mL/min/kg

Question: And the logD [3]?
Answer: 3.7

Question: For `Cc1nc(C(C)(C)O)ccc1-c1cnc(N)c(O[C@H](C)c2cc(F)ccc2-n2nccn2)c1`, which Papp A→B [1] is on record?
Answer: 14 ×10⁻⁶ cm/s

Question: And the CLint scaled [2]?
Answer: 49 mL/min/kg

Question: And the logD [3]?
Answer: 3.6

Question: Which Papp A→B [1] does the source give for `Cc1nc(C(C)(C)O)sc1-c1cnc(N)c(O[C@H](C)c2cc(F)ccc2-n2nccn2)c1` here?
Answer: 18 ×10⁻⁶ cm/s

Question: And the CLint scaled [2]?
Answer: 23 mL/min/kg

Question: What about the logD [3] of the same compound?
Answer: 3.6

Question: What does the source list for `C[C@@H](Oc1cc(-c2cnn(C3CCNCC3)c2)cnc1N)c1cc(F)ccc1Cl`?
Answer: Ki [25]: 5 nM; IC50 [26]: 387 nM; Papp A→B [1]: 2.3 ×10⁻⁶ cm/s; CLint scaled [2]: 27 mL/min/kg; logD [3]: 1.7

Question: With `C[C@@H](Oc1cc(-c2cn(C)nc2C#N)cnc1N)c1cc(F)ccc1-n1nccn1` as the compound, how does the Papp A→B [1] read?
Answer: 18 ×10⁻⁶ cm/s

Question: What about the CLint scaled [2] of the same compound?
Answer: 22 mL/min/kg

Question: What about the logD [3] of the same compound?
Answer: 3.3

Question: Which Papp A→B [1] does the source give for `C[C@@H](Oc1cc(-c2cnnn2C)cnc1N)c1cc(F)ccc1-n1nccn1` here?
Answer: 24 ×10⁻⁶ cm/s

Question: And the CLint scaled [2]?
Answer: 3 mL/min/kg

Question: And the logD [3]?
Answer: 2.4

Question: Which Papp A→B [1] does the source give for `Cc1nc(C2(O)CN(C)C2)sc1-c1cnc(N)c(O[C@H](C)c2cc(F)ccc2-n2nccn2)c1` here?
Answer: 3.4 ×10⁻⁶ cm/s

Question: What about the CLint scaled [2] of the same compound?
Answer: 55 mL/min/kg

Question: And the logD [3]?
Answer: 2.6

Question: What does the source list for `Cc1nccn1-c1cnc(N)c(O[C@H](C)c2cc(F)ccc2-n2nccn2)c1`?
Answer: Papp A→B [1]: 21 ×10⁻⁶ cm/s; CLint scaled [2]: 80 mL/min/kg; logD [3]: 2.4

Question: With `Cc1n[nH]cc1-c1cnc(N)c(O[C@@H](C)c2cc(F)ccc2C#N)c1` as the compound, how does the Papp A→B [1] read?
Answer: 20 ×10⁻⁶ cm/s

Question: What about the CLint scaled [2] of the same compound?
Answer: 37 mL/min/kg

Question: What about the logD [3] of the same compound?
Answer: 2.7

Question: For `Cc1nn(C)cc1-c1cnc(N)c(O[C@H](C)c2cc(F)ccc2-n2nccn2)c1`, which Papp A→B [1] is on record?
Answer: 27 ×10⁻⁶ cm/s

Question: What about the CLint scaled [2] of the same compound?
Answer: 68 mL/min/kg

Question: And the logD [3]?
Answer: 3.4

From ChEMBL document CHEMBL3124869 (J Med Chem, 2014)
